In US20260286316A1, “METHOD OF PRODUCTION OF MODIFIED PHAGE AND METHOD OF TREATMENT USING SAME” (priority 2022, published 2026):
≈ marks a conversion by molar mass, not a printed value.

Tests used:
[1] = system: S. aureus CI11; experiment: Clindamycin MIC, broth microdilution; format: cell-based; settings: Staphylococcus aureus
Method: (§1) The minimum inhibitory concentration (MIC) of amoxicillin, vancomycin, erythromycin, clindamycin and azithromycin against the S. aureus strains was assessed using the broth microdilution technique as previously described (Wiegand I et al., Nature protocols 3 (2): 163-175, 2008) and breakpoints defined according to CSLI guidelines. Clinical strains resistant to at least one antibiotic in three or more antibiotic categories were defined as multidrug resistant (MDR).

[2] = system: S. aureus ATCC51650; experiment: Clindamycin MIC, broth microdilution; format: cell-based; settings: Staphylococcus aureus
Method: as §1

[3] = system: S. aureus CI3; experiment: Antibiotic sensitivity of the isolate selected for in vivo experiments; format: cell-based, Staphylococcus aureus
Method: as §1
A fresh culture of CI3 on 1.5% TSA plates was prepared two days before inoculation. A single colony was resuspended in 0.9% saline (ca. 2 ml) to turbidity reading 0.5 McFarland Units and then a 1 in 100 dilution in TSB was cultured overnight one day before the in vivo experiment. CI3 pellets were harvested and resuspended in fresh TSB to reach 2.5×10^9 Colony Forming Units (CFU)/ml.

[4] = system: S. aureus ATCC51650 and CI11; experiment: Dose-dependence of clindamycin in combination with phage J-Sa36 (OD600); format: cell-based, Staphylococcus aureus; settings: with J-Sa36 MOI=0.2, 24 hours; ⅛th the MIC
Method: (§2) Initial screening was performed in 100 μl in 96 well plates, with follow up experiments in 10 mL culture volume. S. aureus strains were grown on 1.5% Tryptone Soya Agar (TSA) at 37° C. overnight. Single colonies were transferred to Tryptone Soya Broth (TSB) to generate a culture with a starting concentration of 5×10^5 CFU/ml. […] Antibiotics were added to the cultures at ½ MIC (according to the pretest MIC of antibiotics) if required. Optical density (OD) readings at 600 nm were recorded at 24 hours to assess the growth of bacteria co-inoculated with phage unless otherwise specified. Uninoculated, fresh media was included as a sterility control.

[5] = system: S. aureus ATCC51650 and CI11 biofilms; experiment: Biofilm viability, AlamarBlue assay; format: cell-based, Staphylococcus aureus
Method: Briefly, a 1.0 McFarland unit S. aureus culture suspended in 1:15 dilution in TSB was added to 96-well microtiter plates (Costar; Corning Incorporated, Corning, NY, United States of America). Plates were incubated for 48 hours at 37° C. on a rotating platform at 70 rpm (3D Gyratory Mixer; Ratek Instruments, Boronia, VIC, Australia) to allow biofilm formation followed by washing with phosphate-buffered saline. […] Wells were treated for 24 hours at 37° C. with gentle shaking. The AlamarBlue viability assay (Thermo Fisher Scientific, Waltham, MA, United States of America) was used as previously described (Richter K et al., editors. Mind “De GaPP”: in vitro efficacy of deferiprone and gallium-protoporphyrin against Staphylococcus aureus biofilms. International Forum of Allergy & Rhinology; 2016: Wiley Online Library to determine the anti-biofilm activity of the phage. Fluorescence was measured in a microplate reader (FLUOstar OPTIMA, BMG LABTECH, Offenburg, Germany) and the percent reduction of biofilm after treatment determined relative to untreated controls.

[6] = system: S. aureus ATCC51650 and CI11; experiment: Time-dependent interaction of phage J-Sa36 and clindamycin (OD600); format: cell-based, Staphylococcus aureus; settings: ½ MIC clindamycin only or J-Sa36 (MOI 0.2) only
Method: OD600 readings were taken at addition of either phage or clindamycin and following the 24-hour incubation.
The total amount of phage J-Sa36 added into the culture at different time points was adjusted to maintain MOI=0.2, according to the number of bacteria measured via CFU counts at each time point.

[7] = system: S. aureus CI3; experiment: Phage combined with ½ MIC antibiotics on planktonic S. aureus (OD600), CI3; format: cell-based, Staphylococcus aureus; settings: ½ MIC antibiotic, phage MOI=0.2, 24 hours
Method: as §2

CCC[C@@H]1C[C@@H](C(=O)N[C@@H]([C@H]2O[C@H](SC)[C@H](O)[C@@H](O)[C@H]2O)[C@H](C)Cl)N(C)C1 [clindamycin]
MIC [1]: 0.2 µg/mL (≈ 0.471 µM)
MIC [2]: 0.2 µg/mL (≈ 0.471 µM)
antibiotic sensitivity of the isolate [3]: sensitive
lowest effective concentration of clindamycin required to facilitate phage J-Sa36 killing [4]: 0.025 µg/mL
reduction of clindamycin concentration required to significantly reduce biofilm viability by combination with phage [5]: five
minimal effective concentration ([5]; Staphylococcus aureus, ATCC51650, 24 hours treatment, lower concentrations no significant effect, read-out: clindamycin alone: concentration significantly reducing viability of preformed biofilms): ≥ 0.5 µg/mL
bacterial viability at 24 hours, single agent [6]: did not significantly affect bacterial viability
synergistic effects with phage J-Sa36, Sa83 and Sa87 on bacterial viability (OD600) [7]: synergistic effects
